Reference: US20140186364A1, “INHIBITION OF THE NT-3:TRKC BOUND AND ITS APPLICATION TO THE TREATMENT OF CANCER SUCH AS NEUROBLASTOMA” (CENTRE NATIONAL DE LA RECHERCHE SCIENTIFIQUE (CNRS), priority 2008, published 2014)
Residues, ends and D or L forms follow the SMILES beside them. *: point of attachment. Cbz = O=C(OCc1ccccc1)*; CH2F = FC*

What was measured:
TrkC [1] = assay: TrkC caspase cleavage in TrkC-expressing 13.S.24 cells (immunoblot); format: cell-based, rat; details: 13.S.24 cells expressing TrkC; C-terminal TrkC antibody
Procedure: (§1) To observe the cleavage of TrkC in 13.S.24, MG132 ([…], Z-Leu-Leu-Leuala, Sigma-Aldrich) was added to the culture medium 2 h before harvesting the cells. Cells were then potterised in the Wang buffer (20 mM Hepes KOH/10 mMKCl/1.5 mM MgC12/1 mM Sodium EDTA/1 mM Sodium EGTA/0.1 mM PMSF/1 mM DTT/[…]). Proteins were then analyzed by Western blot using the anti-TrkC antibody (sc-139; Santa Cruz Biotechnology). To monitor TrkC cleavage in vivo, E10.5 OF1 mouse embryos were dissected with a sharpened tungsten needle to isolate the spinal cord, the somites and DRG precursors which were then semidissociated in DMEM F-12 (Invitrogen). The samples were incubated overnight under agitation at 37° C. in the presence or absence of either NT-3 (PreproTech; 10 ng/ml), or BAF (Sigma-Aldrich; […]), or the NT-3 blocking antibody AF1404 (R&D, Minneapolis, Minn.; 1/100). The samples were then lysed directly in the Laemmli sample buffer and the proteins separated on 12% SDS/PAGE. The filter was probed with the anti-TrkC antibody.

rat TrkC = molecular target: T1, rat TrkC (Rattus norvegicus, UniProt Q03351); assay: TrkC-induced apoptosis in TrkC-transfected HEK293T or 13.S.24 cells (trypan blue, caspase activity, DNA condensation); format: cell-based; details: for TrkC-induced apoptosis: general caspase inhibitors added after TrkC transfection
T1 construct: We first transiently expressed full-length rat TrkC in HEK293T cells; HA; expressed in transfected cells; host or cells: HEK293T or 13.S.24 olfactory neuroblasts
Procedure: (§2) Transient transfections of Human Embryonic Kidney 293T and olfactory neuroblasts 13.S.24 cells were performed as previously described (4), by using Lipofectamine Plus (Invitrogen, Carlsbad, Calif.) according to the manufacturer's instructions. HEK293T and 13.S.24 cells where cultured in DMEM (Invitrogen) with the addition of 0.1% gentamycin for 13.S.24 cells. The recombinant human NT-3 was purchased from PreproTech (Rocky Hill, N.J.) and added to the culture medium 3 and 24 h after transfection. TrkC expression was monitored by Western blot with an anti-C-terminal antibody purchased from Santa Cruz Biotechnology (sc-139; Santa Cruz, Calif.), 24 h after transfection. Plasma membrane localisation of Trk receptors was performed by FACS analysis. Briefly, […] cells were transfected and labeled successively with anti-HA antibody (1/100; Sigma, St. Louis, Mo.) and anti-rabbit PE (1/100; Jackson ImmunoResearch Laboratories, West Grove, Pa.). Detection was done using a FACSCalibur (BD Biosciences, San Jose, Calif.).
Cell death was analyzed using trypan blue staining procedures, as previously described (6). Either the z-VAD-fmk (TEBU-bio, Le Perray en Yvelines Cedex, France; […]) or the BAF [Boc-Asp(Ome) Fluoromethyl Ketone; Sigma-Aldrich; […]] caspase inhibitors were added to the culture medium just after transfection. The extent of cell death is presented as the percentage of trypan blue-positive cells in the different transfected cell populations. Relative caspase activity was determined by fluorescence measurement of DEVDAFC cleavage, as described in (8). Immunostaining using anti-caspase-3 antibody (Cell Signaling) was described in (4). […] For flow cytometric analysis, stained cells were counted using a FACSCalibur (BD Biosciences) and CellQuest analysis software with excitation and emission settings of 488 nm and 525-550 nm (filter FL1), respectively.

TrkC [2] = molecular target: T2, TrkC (Mus musculus, UniProt Q6VNS1); assay: TrkC cleavage in semidissociated embryonic mouse DRG (Western blot); format: cell-based; details: DRG maintained overnight; NT-3 10 ng/ml
T2 construct: embryonic mouse dorsal root ganglion (DRG) were semidissociated and maintained overnight; from tissue; host or cells: spinal cord, somites and DRG precursors of E10.5 OF1 mouse embryos, semidissociated
Procedure: as §1

TrkC [3] = molecular target: T3, TrkC (Homo sapiens, UniProt Q16288); assay: Endogenous TrkC cleavage in CLB-Ge2 cells (western blot); format: cell-based; set-up: endogenous in cells; host or cells: CLB-Ge2 human neuroblastoma cells
Procedure: 8×10^4 cells were cytospun on coverslips and fixed in 4% PFA. The slides were then incubated at room temperature for one hour with an antibody recognizing human NT-3 (1/300, SC-547). After rinsing in Phosphate Buffer Saline, the slides were incubated with an Alexa-488-Donkey anti-Rabbit antibody (Molecular Probes). Nucleus were visualized with Hoechst staining (Sigma). Expression of TrkC constructs and endogenous TrkC cleavage were monitored by western blot with anti-Trk antibody (sc-11; Santa Cruz Biotechnology) and an anti […]-actin (13E5; Cell Signaling) was used as loading control as previously described (36).

TrkC [4] = molecular target: T3, TrkC; assay: Human TrkC-induced cell death in transfected 13.S.24 cells (active caspase-3); format: cell-based; set-up: expressed in transfected cells; host or cells: 13.S.24 olfactory neuroblasts; details: NT-3 10 ng/ml
Procedure: as §2, with “Detection was done using a FACSCalibur (BD Biosciences, San Jose, Calif.).” left out
Cell death was analyzed using trypan blue staining procedures, as previously described (6). […] Relative caspase activity was determined by fluorescence measurement of DEVDAFC cleavage, as described in (8). […] For flow cytometric analysis, stained cells were counted using a FACSCalibur (BD Biosciences) and CellQuest analysis software with excitation and emission settings of 488 nm and 525-550 nm (filter FL1), respectively.

T1 sequence (Q03351 32-825 isoform Q03351-2 limits assumed): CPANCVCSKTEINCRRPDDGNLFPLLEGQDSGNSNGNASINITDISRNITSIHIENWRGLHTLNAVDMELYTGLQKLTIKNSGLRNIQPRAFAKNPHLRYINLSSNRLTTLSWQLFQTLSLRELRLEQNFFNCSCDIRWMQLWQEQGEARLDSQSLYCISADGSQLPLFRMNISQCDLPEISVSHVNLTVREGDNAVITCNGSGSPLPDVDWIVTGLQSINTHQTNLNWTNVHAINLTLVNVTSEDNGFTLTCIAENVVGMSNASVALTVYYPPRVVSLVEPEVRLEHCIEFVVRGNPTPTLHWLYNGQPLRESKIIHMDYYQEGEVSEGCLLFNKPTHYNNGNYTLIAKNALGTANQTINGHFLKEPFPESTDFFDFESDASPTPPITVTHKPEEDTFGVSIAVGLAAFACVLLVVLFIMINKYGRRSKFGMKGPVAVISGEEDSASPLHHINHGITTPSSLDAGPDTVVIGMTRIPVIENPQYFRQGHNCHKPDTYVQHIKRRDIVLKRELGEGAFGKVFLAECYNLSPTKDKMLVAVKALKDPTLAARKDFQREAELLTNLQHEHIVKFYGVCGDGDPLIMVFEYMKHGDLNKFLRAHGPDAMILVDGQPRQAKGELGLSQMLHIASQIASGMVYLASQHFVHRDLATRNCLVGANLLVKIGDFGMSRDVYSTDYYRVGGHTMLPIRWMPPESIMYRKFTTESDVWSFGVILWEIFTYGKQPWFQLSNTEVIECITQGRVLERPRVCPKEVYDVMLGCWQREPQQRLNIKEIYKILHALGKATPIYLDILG
T3 sequence (Q16288 32-839): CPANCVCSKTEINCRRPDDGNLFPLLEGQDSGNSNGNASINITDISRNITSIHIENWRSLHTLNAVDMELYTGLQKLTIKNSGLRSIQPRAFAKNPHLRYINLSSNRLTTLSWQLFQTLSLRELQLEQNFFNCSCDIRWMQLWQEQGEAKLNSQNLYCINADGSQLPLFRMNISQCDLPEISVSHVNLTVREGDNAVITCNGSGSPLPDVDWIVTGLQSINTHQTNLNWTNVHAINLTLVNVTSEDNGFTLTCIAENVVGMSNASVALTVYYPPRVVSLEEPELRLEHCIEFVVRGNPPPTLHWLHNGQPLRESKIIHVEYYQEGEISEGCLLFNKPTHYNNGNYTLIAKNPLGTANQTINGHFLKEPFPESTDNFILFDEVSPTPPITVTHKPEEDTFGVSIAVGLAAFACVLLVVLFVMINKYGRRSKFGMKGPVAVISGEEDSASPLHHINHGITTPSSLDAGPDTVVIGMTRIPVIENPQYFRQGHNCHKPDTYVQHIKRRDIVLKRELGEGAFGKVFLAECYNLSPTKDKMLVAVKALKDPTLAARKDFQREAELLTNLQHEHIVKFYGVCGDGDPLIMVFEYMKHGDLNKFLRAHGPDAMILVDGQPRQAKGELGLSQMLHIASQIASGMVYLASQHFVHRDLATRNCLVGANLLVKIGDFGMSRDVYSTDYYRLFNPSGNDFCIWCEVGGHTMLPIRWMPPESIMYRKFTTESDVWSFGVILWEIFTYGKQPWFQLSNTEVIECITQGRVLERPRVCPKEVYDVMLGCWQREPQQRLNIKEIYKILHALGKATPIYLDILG
T2 sequence (Q6VNS1 32-825): as the sequence (Q03351 32-825 isoform Q03351-2 limits assumed) above

Row | Compound | TrkC cleavage bands (35 and 20 kDa) (TrkC [1]) | TrkC-induced apoptosis (rat TrkC) | 20-kDa TrkC fragment (TrkC [2]) | TrkC caspase cleavage (20 kDa band) (TrkC [3]) | human TrkC-triggered cell death (TrkC [4]) | TrkC-mediated cell death (trypan blue exclusion, caspase activity, DNA condensation) (rat TrkC; rat TrkC-transfected 13.S.24 cells, NT-3 0.5-50 ng/ml)
1 | COC(=O)C[C@H](NC(=O)[C@H](C)NC(=O)[C@@H](NC(=O)OCc1ccccc1)C(C)C)C(=O)CF [zVAD-fmk] (Cbz-Val-Ala-Asp(OMe)-CH2F) | failed to be detected | fully inhibit TrkC-induced apoptosis | – | – | – | –
2 | COC(=O)CC(NC(=O)OC(C)(C)C)C(=O)CF (stereo not shown) [BAF, boc-aspartyl(OMe)-fluoromethylketone] | failed to be detected | fully inhibit TrkC-induced apoptosis | disappeared | blocked | – | –
3 | COC(=O)CC[C@H](NC(=O)[C@H](CC(=O)OC)NC(=O)OCc1ccccc1)C(=O)N[C@H](C(=O)N[C@@H](CC(=O)OC)C(=O)CF)C(C)C [DEVD-fmk] | fail to block caspase-dependent cleavage of TrkC | – | – | – | – | –
4 | NT-3: recombinant human NT-3 purchased from PreproTech; ligand of TrkC | – | – | disappeared | – | triggers cell death unless NT-3 is present | inhibited, in a dose-dependent manner
